Experimental findings from ChEMBL document CHEMBL3882390, “Method for selectively inhibiting ACAT1 in the treatment of neurodegenerative diseases” (2014) are described below.

Assay [1] concerns the target T1, Sterol O-acyltransferase 2 (Homo sapiens) (UniProt O75908).
T1 sequence (whole entry): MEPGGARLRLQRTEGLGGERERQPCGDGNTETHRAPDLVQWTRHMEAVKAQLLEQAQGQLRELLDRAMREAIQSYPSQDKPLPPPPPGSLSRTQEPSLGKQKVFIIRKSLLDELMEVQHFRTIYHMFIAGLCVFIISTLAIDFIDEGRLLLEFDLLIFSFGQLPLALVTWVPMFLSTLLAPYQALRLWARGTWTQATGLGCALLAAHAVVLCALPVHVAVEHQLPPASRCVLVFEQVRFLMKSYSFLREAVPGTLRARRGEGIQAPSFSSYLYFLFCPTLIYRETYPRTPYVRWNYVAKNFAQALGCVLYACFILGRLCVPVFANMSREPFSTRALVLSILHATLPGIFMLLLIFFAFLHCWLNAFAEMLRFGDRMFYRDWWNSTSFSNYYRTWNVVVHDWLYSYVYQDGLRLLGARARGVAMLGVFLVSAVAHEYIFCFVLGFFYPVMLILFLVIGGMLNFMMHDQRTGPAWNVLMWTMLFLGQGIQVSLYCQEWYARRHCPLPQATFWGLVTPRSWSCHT
The assay is described as follows: Inhibition of human ACAT2 at 1 mM.

Assay [2] deals with T2, Sterol O-acyltransferase 2 (Homo sapiens, UniProt O75908).
T2 sequence (O75908 whole entry): T1 sequence (whole entry)
The assay can be described thus: Inhibition of ACAT2 (unknown origin).

The target of assay [3] is T3, Sterol O-acyltransferase 1 (Mus musculus) (UniProt Q61263).
T3 sequence (whole entry): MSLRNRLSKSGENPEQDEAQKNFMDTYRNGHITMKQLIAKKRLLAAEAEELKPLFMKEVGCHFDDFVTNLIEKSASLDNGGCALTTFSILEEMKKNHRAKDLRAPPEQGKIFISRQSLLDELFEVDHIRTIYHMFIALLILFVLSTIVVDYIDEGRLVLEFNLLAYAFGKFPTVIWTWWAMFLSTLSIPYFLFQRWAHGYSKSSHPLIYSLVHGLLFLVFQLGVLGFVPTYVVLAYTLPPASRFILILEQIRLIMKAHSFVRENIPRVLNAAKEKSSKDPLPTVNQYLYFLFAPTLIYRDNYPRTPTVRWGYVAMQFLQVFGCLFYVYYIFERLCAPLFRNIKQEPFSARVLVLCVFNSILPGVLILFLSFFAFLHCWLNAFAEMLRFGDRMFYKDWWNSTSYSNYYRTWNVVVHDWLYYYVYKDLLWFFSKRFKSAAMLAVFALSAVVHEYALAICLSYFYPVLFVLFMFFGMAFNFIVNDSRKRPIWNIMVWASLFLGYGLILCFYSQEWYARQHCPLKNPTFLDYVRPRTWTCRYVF
The assay can be described thus: Inhibition of ACAT1 in mouse N9 cells assessed as increase in lysosome biogenesis by measuring Lyso tracker fluorescence measured after 8 hrs by Lyso tracker staining based flow cytometry. The format is cell-based.

Assay [4] concerns the target T3, Sterol O-acyltransferase 1 (Mus musculus). The assay can be described thus: Inhibition of ACAT1 in mouse N9 cells assessed as increase in TFEB target genes mRNA expression measured after 8 hrs by qPCR analysis. The format is cell-based.
The target is the same in assay [5]. The assay is described as follows: Inhibition of ACAT1 in mouse N9 cells assessed as reduction in oligomeric amyloid beta 1 to 42 pretreated for 24 hrs followed by oligomeric amyloid beta 1 to 42 addition measured after 12 hrs by Western blot analysis relative to control. The following applies: concentration not given here. The class given is cell-based. A general note: Immunoblotting shows a protein as a band on a membrane.

Assay [6] shares this target. The assay is described as follows: Inhibition of ACAT1 in TFEB knock-down mouse N9 cells assessed as autophagosome formation by measuring LC3-2 levels. The format is cell-based.
The target is the same in assay [7]. The assay can be described thus: Inhibition of ACAT1 in mouse N9 cells assessed as effect on […] by measuring p62 levels in presence of Torin-1 by Western blot analysis. The format is cell-based.
Assay [8] shares this target. The assay is described as follows: Inhibition of ACAT1 in wild type mouse microglia assessed as increase in clearance of oligomeric amyloid beta at 1 uM pretreated for 24 hrs followed by oligomeric amyloid beta addition measured after 18 hrs by western blot analysis relative to control.
Assay [9] shares this target. The assay can be described thus: Inhibition of ACAT1 in mouse N9 cells assessed as effect on autophagosome formation by measuring LC3-2 levels in presence of squalene synthase inhibitor CP-340868. The class given is cell-based.
Assay [10] has the same target. The assay can be described thus: Inhibition of ACAT1 in mouse N9 cells assessed as increase in autophagic flux by measuring LC3-2 levels in presence of Torin-1 by Western blot analysis. The class given is cell-based.
For assay [11] the target is unchanged. The assay can be described thus: Inhibition of ACAT1 in mouse N9 cells assessed as increase in late endosomes/lysosomes volume measured after 8 hrs by Lyso tracker staining based flow cytometry relative to control. Conditions: concentration not given here. The format is cell-based. A general note: In flow cytometry, cells or beads pass a laser one at a time.

For assay [12] the target is unchanged. The assay is described as follows: Inhibition of ACAT1 in mouse N9 cells assessed as induction of autophagy by measuring LC3-2 at 0.1 uM by Western blot analysis. The class given is cell-based.
Assay [13] shares this target. The assay can be described thus: Inhibition of ACAT1 in mouse N9 cells at 0.1 uM measured after 8 hrs by Lyso tracker staining based flow cytometry relative to control. The class given is cell-based.
Assay [14] has the same target. The assay can be described thus: Inhibition of ACAT1 in mouse N9 cells. The format is cell-based.
Assay [15] shares this target. The assay is described as follows: Inhibition of ACAT1 in mouse N9 cells assessed as increase in Cys-amyloid beta 1 to 42 uptake pretreated for 8 hrs followed by Cys-amyloid beta 1 to 42 addition measured after 3 hrs by flow cytometry relative to control. Set-up: scale not given: the % may be the effect or the level left. The format is cell-based.
Assay [16] deals with T2, Sterol O-acyltransferase 2. The assay can be described thus: Inhibition of human ACAT2.
Assay [17] has as its target T4, Sterol O-acyltransferase 1 (Homo sapiens, UniProt P35610).
T4 sequence (P35610 whole entry): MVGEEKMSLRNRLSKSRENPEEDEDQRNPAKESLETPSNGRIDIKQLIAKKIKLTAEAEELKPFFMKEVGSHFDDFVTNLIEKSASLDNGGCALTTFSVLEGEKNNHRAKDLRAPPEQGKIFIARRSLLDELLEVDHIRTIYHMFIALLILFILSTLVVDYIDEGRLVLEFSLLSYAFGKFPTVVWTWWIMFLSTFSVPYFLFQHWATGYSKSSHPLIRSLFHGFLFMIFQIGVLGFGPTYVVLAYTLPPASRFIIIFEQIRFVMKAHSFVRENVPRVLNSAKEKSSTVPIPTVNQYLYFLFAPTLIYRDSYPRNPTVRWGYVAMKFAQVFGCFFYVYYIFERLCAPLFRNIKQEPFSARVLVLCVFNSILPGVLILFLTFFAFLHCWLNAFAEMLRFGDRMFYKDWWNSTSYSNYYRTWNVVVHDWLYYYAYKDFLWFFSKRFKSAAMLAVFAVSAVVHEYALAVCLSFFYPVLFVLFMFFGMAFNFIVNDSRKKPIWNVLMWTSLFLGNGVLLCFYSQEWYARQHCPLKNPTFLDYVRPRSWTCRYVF
The assay is described as follows: Inhibition of human ACAT1.

For assay [18], the species on record is Homo sapiens. The assay is described as follows: Selectivity ratio of IC50 for human ACAT2 to IC50 for human ACAT1.
Assay [19] has as its system Mus musculus. The assay is described as follows: Reduction in brain cholesteryl esters in C57BL/6 mouse overexpressing human APP751 with London (V717I) and Swedish ([…]) mutation administered as pellets into bloodstream. The format is functional.
The test system of assay [20] is Mus musculus. The assay is described as follows: Reduction in soluble amyloid beta42 in brain homogenates of C57BL/6 mouse overexpressing human APP751 with London (V717I) and Swedish ([…]) mutation administered as pellets into bloodstream. The class given is functional.
The test system of assay [21] is Mus musculus. The assay can be described thus: Reduction in membrane/insoluble amyloid beta level in C57BL/6 mouse overexpressing human APP751 with London (V717I) and Swedish ([…]) mutation administered as pellets into bloodstream. The class given is functional.
The subject of assay [22] is Mus musculus. The assay can be described thus: Reduction in accumulation of amyloid plaque in C57BL/6 mouse overexpressing human APP751 with London (V717I) and Swedish ([…]) mutation administered as pellets into bloodstream. The class given is functional.
In assay [23] the target is T5, Sterol O-acyltransferase 2 (Chlorocebus aethiops, UniProt O77759).
T5 sequence (O77759 whole entry): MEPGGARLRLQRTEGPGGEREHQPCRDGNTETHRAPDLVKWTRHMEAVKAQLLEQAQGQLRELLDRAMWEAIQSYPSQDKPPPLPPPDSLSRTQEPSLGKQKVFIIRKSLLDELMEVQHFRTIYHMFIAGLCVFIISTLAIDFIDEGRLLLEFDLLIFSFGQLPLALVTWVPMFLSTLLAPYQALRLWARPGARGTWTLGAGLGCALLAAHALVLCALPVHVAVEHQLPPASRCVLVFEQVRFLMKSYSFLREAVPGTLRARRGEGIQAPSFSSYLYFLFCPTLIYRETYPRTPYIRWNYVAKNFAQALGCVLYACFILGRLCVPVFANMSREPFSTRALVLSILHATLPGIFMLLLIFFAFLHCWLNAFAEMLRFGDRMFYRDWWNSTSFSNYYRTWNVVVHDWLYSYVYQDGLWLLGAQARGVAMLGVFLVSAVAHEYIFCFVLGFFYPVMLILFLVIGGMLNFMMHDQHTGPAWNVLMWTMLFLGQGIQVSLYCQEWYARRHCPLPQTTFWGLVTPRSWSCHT
The assay can be described thus: Inhibition of African green monkey ACAT2 expressed in mouse AC29 cells assessed as reduction in esterification of NBD-cholesterol preincubated for 20 mins followed by NBD-cholesterol addition measured after 6 hrs by high-performance TLC method. The format is cell-based.

The target of assay [24] is T5, Sterol O-acyltransferase 2. The assay can be described thus: Inhibition of African green monkey ACAT2 expressed in CHO cells assessed as reduction in [14C]CE formation using [1-14C]oleoyl-CoA measured after 6 hrs by TLC method. The class given is cell-based.

Activity calls are given as the source filed them. The rule behind the calls is not given here.

For orientation: inhibition means the percentage by which the read-out fell short of the control. In assay [1], `COc1ccc([C@@H](O)[C@@H](C)Oc2ccc([C@H]3O[C@H](c4ccc(O[C@H](C)[C@H](O)c5ccc6c(c5)OCO6)c(OC)c4)[C@H](C)[C@H]3C)cc2OC)cc1OC` displayed an inhibition of 32%.
What is called IC50 is the concentration at which inhibition is half-maximal. For `CCCCCCCCCCCCS[C@H](C(=O)Nc1cc(C)c(O)c(C)c1C)c1ccccc1` [EFLUCIMIBE], in assay [2], the IC50 worked out at 110 nM.
Regarding `CSc1cc(C)nc(SC)c1NC(=O)CN1CCN(CCSc2nc3ccccc3[nH]2)CC1`, the inhibition entry in [3], in assay [4], in assay [6], in assay [7], in [9] and in assay [10] was “Active” in each case. In addition, in assay [12], the inhibition result was “Active”. Further, the inhibition in assay [5] was 58%; in [8], under 65%; in assay [11] it was 27%; in assay [13], 80%; in assay [14], “Dose-dependent effect”. In assay [15], the Activity came out at 23%.
Consider `CCOC(=O)OC(=O)OCC` [DIETHYL PYROCARBONATE], for which the IC50 in [16] was 170 µM; in assay [17], 44 µM. In addition, the Ratio IC50 in [18] stood at 4.
Consider `CCCCCCCC[C@H](SCCCCCC)C(=O)Nc1c(SC)cc(C)nc1SC`, for which the “inhibition (INH)” value in assay [19] was 86%; in assay [20] it was 34%; in [21] it was 83 - 96%; in assay [22], 88 - 99%.
As to `CC(C)c1cccc(C(C)C)c1NC(=O)CC(=O)C(Cc1ccccc1)Cc1ccc(OC(=O)CCCCCCN2CCCCCC2=O)cc1` (centres undefined), in [23], the IC50 came to 530 nM.
Take `CCCC[C@H](C)[C@@H]1CC(=O)N[C@@H](Cc2ccccc2)C(=O)N[C@@H](C)C(=O)N[C@H](CC(C)C)C(=O)O1` [BEAUVERIOLIDE I]: in assay [24], the IC50 stood at 20 µM.
